Reference: US20040224979A1, “Treating obesity with selective androgen receptor modulators” (priority 2002, published 2004)

Experiments:
[1] = Organ weights in intact male rats (tissue-selective anabolic activity); assay type: in vivo, Sprague-Dawley rats; settings: 500 μg/day
[2] = system: leptin; experiment: Serum leptin levels in intact male rats (ELISA) after SARM treatment by osmotic pump; settings: for Leptin, percent of control / Normalized Leptin, percent of control: control = 100%; for Normalized Leptin: serum leptin normalized to body weight; for Leptin: serum, intact male rats, 500 μg/day s.c. osmotic pump
Experimental: All doses were delivered by subcutaneous placement of Alzet osmotic pumps.
Seven, 14 and 28 days after pump implantation, animals were exsanguinated under ketamine/xylazine anesthesia. Serum was collected, separated into 10 aliquots and stored at −80° C.
Serum concentrations of testosterone (T), leptin, Insulin and IGF-1 were determined by commercially available ELISA kits.

[3] = Whole body DEXA body composition (lean body mass, body fat) in ovariectomized female rats; assay type: in vivo, Sprague-Dawley rats; settings: 3 mg/day s.c., 90 day time point
Experimental: Two hundred and thirty (230) female Sprague-Dawley rats (23 weeks of age) were used in these studies.
Animals were randomized (n=10 per group) into each of the treatment groups outlined in Table 2 below. Animals assigned to groups 6 through 23 were ovariectomized on day 0 of the experiment.
Drug administration with Compound VI, bicalutamide (an antiandrogen), and/or DHT commenced on day 0 or 90 with the compound of interest administered via daily subcutaneous injection (0.20 mL) and continued until day 120 or 210 of the study. Drug solutions were prepared daily by dissolving in DMSO and dilution with PEG 300. The percentage of DMSO was the same in all vehicles (17.6%), as determined based on the solubility of the test compounds.
Whole body DEXA images were collected up to 120 or 210 days after ovariectomy, as described in Table 2. Lean body mass (LBM), fat mass (FM) and total body mass (TBM) were determined at each time point.

[4] = system: androgen receptor (AR); experiment: In vitro androgen receptor binding affinity

| SMILES | changes in organ weight [1] | decrease of serum leptin levels compared with the vehicle control ([2]; 2 w) | decrease of serum leptin levels compared with the vehicle control ([2]; 4 w) | Leptin, percent of control ([2]; 1 w) | Normalized Leptin, percent of control ([2]; 1 w) | Leptin, percent of control ([2]; 2 w) | Normalized Leptin, percent of control ([2]; 2 w) | Leptin, percent of control ([2]; 4 w) | Normalized Leptin, percent of control ([2]; 4 w) | Normalized Leptin ([2]; 1 w) | Normalized Leptin ([2]; 2 w) | Normalized Leptin ([2]; 4 w) | Leptin ([2]; 1 w) | Leptin ([2]; 2 w) | Leptin ([2]; 4 w) | decrease in body fat as compared to the ovariectomized (OVX) control group [3] | increase in lean mass as compared to the ovariectomized (OVX) control group [3] | in vitro androgen receptor (AR) binding affinity [4] |
| --- | --- | --- | --- | --- | --- | --- | --- | --- | --- | --- | --- | --- | --- | --- | --- | --- | --- | --- |
| C[C@](O)(COc1ccc(F)cc1)C(=O)Nc1ccc([N+](=O)[O-])c(C(F)(F)F)c1 [Compound VII] | tissue-selective anabolic activity | 36% | 22% | (84%) | (81%) | (64%) | (63%) | (77%) | (78%) | 5.80 ± 1.73 (pg/ml)/BW (g) | 5.47 ± 1.03 (pg/ml)/BW (g) | 13.82 ± 1.17 (pg/ml)/BW (g) | 1.45 ± 0.47 ng/mL | 1.68 ± 0.29 ng/mL | 4.89 ± 0.61 ng/mL | – | – | – |
| CCC(=O)O[C@H]1CC[C@H]2[C@@H]3CCC4=CC(=O)CC[C@]4(C)[C@H]3CC[C@]12C [TP, testosterone propionate, reference compound] | – | – | – | (102%) | (93%) | (84%) | (92%) | (92%) | (90%) | 6.67 ± 1.96 (pg/ml)/BW (g) | 7.04 ± 1.97 (pg/ml)/BW (g) | 16.0 ± 1.7 (pg/ml)/BW (g) | 1.74 ± 0.53 ng/mL | 2.19 ± 0.67 ng/mL | 5.89 ± 0.77 ng/mL | – | – | – |
| CC(=O)Nc1ccc(OC[C@](C)(O)C(=O)Nc2ccc([N+](=O)[O-])c(C(F)(F)F)c2)cc1 [Compound VI] | tissue-selective anabolic activity | – | – | (96%) | (93%) | (107%) | (104%) | (104%) | (105%) | 6.65 ± 1.07 (pg/ml)/BW (g) | 8.99 ± 0.99 (pg/ml)/BW (g) | 18.7 ± 4.2 (pg/ml)/BW (g) | 1.71 ± 0.31 ng/mL | 2.81 ± 0.29 ng/mL | 6.62 ± 1.12 ng/mL | 3.6% | 9% | high |
